Reference: patent US20140100183A1, “CENTRAL ADMINISTRATION OF STABLE FORMULATIONS OF THERAPEUTIC AGENTS FOR CNS CONDITIONS” (The Regents of the University of Colorado, a body corporate, priority 2006, published 2014)
“And” between values parts separate entries of the source, which are not always exact repeats. Identical values can stand only once. Like-named read-outs stand apart in the source and are kept apart here.

Columns and labels:
animals = experiment: Behavioral toxicology: openfield, elevated plus, ataxia; format: in vivo
Experimental: Several animal models as described below were used to determine the efficacy of formulations containing different concentrations of the drug. The animals were also tested for toxic effects as described in the table, below.
All animals are assessed for ataxia, which is a measure of altered gate and ability to change body position. They are also placed on their acks and time to “righting” measured.

[1] = tested on: patients diagnosed with epilepsy disorders; experiment: ICV or cisterna magna treatment of epilepsy (Example 6); format: in vivo, human; details: central administration, 0.01 to 0.1 mg per hour, 1 week
From the text: After 1 week of treatment, epileptic frequency is reduced.

[2] = qualitative, solvents as given in the source; cited from earlier work
human = details: cited from earlier work
[3] = tested on: pentylenetetrazole (PTZ) seizure induction in rats; experiment: Pentylenetetrazole (PTZ) seizure induction model, ICV administration; format: in vivo, rat; details: for % Change: drug group vs vehicle group (-V); for Rodent ICV dose: effective daily dose, blocking seizures; for Efficacy: effective in blocking seizures
Experimental: Rats are anesthetized, placed in a stereotaxic instrument and a burr hole opened over one anterior lateral ventricle. A cannula is lowered to the ventricle and 5 μl of solution containing the drug is injected into the ventricle over 10 minutes. The incision is then closed and the animal allowed to regain consciousness and remain conscious for 10 minutes. After 10 minutes has elapsed, pentylenetetrazole (PTZ, 10 mg/ml in saline) is injected through a tail-vein catheter at a constant rate of infusion (1 ml/min, Razel syringe pump) until a motor seizure is induced. PTZ seizures are identified as myoclonic jerking followed by clonus and tonus. The time from the initial application of PTZ to the first clonic seizure (i.e., forelimb clonus) is measured and defined as “latency to seiqure onset”. The total amount of PTZ infused is calculated and then divided by each rat;s body weight to obtain the dose (mg/kg) of PTZ. The dose required to attain status epilepticus is compared to the PTZ dose without antiseizure medication.

[4] = tested on: anxiety in rats (elevated plus maze, open field); experiment: Elevated plus maze and open field conflicts test after ICV antidepressants; format: in vivo, rat; details: elevated plus maze and open field conflicts test
Experimental: Various antidepressants were injected via ICV, and animals monitored in standard elevated plus maze and open field conflicts test.
Rats are placed in the center of a pluz-shaped maze. The arms are 13 cm wide; two arms were open and two are enclosed by 32 cm high walls. The maze is elevated off the flor by 51 cm. The percent of time and distance traveled in each type of arm over the 4 minute test period is calculated by computer. Increased time and distance traveled in the open arms is thought to reflect anxiolytic activity.
Rats are place against 1 side of a 104 cm square box with 32 cm sides. The activity of the rat is monitored by computer over a 4 minute testing period. A computer divides the openfied space into 25 equal squares arranged into an outer:ring” of 16 squares, a middle region of 8 squares and a central square. The percent of time and distarnce traveled in the center square by rats receiving the drug are calculated and compared to rats receiving a saline control. Increased time and distance traveled in the center square is thought to reflect anxiolytic activity.

schizophrenia patients = details: Iqbal et al. 2003; cited from earlier work
[5] = for prevention of precipitation on titration: even at very alkaline pH (≈11)
[6] = tested on: primary mouse cortical neuron cultures; experiment: Toxicity in primary mouse cortical neuron cultures (MTT)
Experimental: In addition, a preliminary assessment of the toxicity of cyclodextrin in primary mouse cortical neuron cultures was performed. […] After dissection, and cellular dissociation, the cells were washed with Dulbecco's Modified Eagle's Medium with 10% fetal bovine serum. Following recentrifugation, the cells resuspended in plating medium, counted with trypan blue and plated at a constant density of 6.5×10^4 cells per well in a 96-well pre-coated plate. […] The cultures were maintained at 37° C. in a humidified atmosphere of 5% CO2. […] The cultures were incubated and cell toxicity assayed at 24, 48 and 72 hours. Viability was assessed by the MTT (3-(4,5 diethylthiazol-2-yl)-2,5)diphenyltetrazolium bromide) assay, CellTiter 96 Non-radioactive cell Proliferation Assay (Promega, Madison Wis.) and by visual examination.

[7] = tested on: prenatally stressed Sprague Dawley rats; experiment: Chronic ICV clozapine by osmotic minipump in schizophrenia model (Example 3); format: in vivo, rat
Experimental: After 1 week recovery from surgery, at least 10 baseline recording sessions are performed in which 30 pairs of identical auditory click stimuli are presented and the evoked potentials are recorded and averaged. This establishes the baseline parameters for sensory inhibition in the rats.
Formulations described above are administered into the ventricles using an osmotic minipump to deliver 0.5 μl/hr for 14 days. The rats have a chronic recording electrode implant that allows repeated awake recording over several days and a ventricular cannula to permit withdrawal of CSF. Sensory inhibition is recorded on alternate days for the 14 days of the pump duration. At the end of each recording session, blood and CSF are sampled under light anesthesia to assess levels of the active agent. Brain penetration and distribution are assessed using tritiated active agent/excipient complex in the osmotic minipump in a separate group of animals. […] A rat model of deficient sensory inhibition is used which allows us to sample both fluids repeatedly over several days.
Two days later, alternate day recording of sensory inhibition begins and continues for the full 14 days of the pump. […] Data are analyzed by analysis of variance and appropriate a posteriori analyses performed wherever significant differences are found (p<0.05).

[8] = tested on: sensory inhibition deficits in DBA/2 mice; experiment: Chronic ICV clozapine (7 day minipump), sensory inhibition; format: in vivo, mouse; details: 0.25 μl/hr for 7 days
Experimental: DBA/2 mice are implanted with a chronic indwelling cannula aimed at one anterior lateral ventricle (Alzet Brain Infusion system) which is connected to an osmotic minipump delivering 0.25 μl/hr for 7 days. On the 7th day, the mouse is anesthetized, placed in a stereotaxic instrument, a burr hole opened in the skull over the contralateral dorsal hippocampus and a recording electrode lowered to the CA3 region of the hippocampus. Evoked EEG responses to closely paired (0.5 msec apart) identical tones are recorded.

[9] = cited from earlier work
[10] = tested on: sensory inhibition deficits in DBA/2 mice; experiment: Sensory inhibition (paired auditory stimuli, TC ratio) after acute ICV administration; format: in vivo, mouse; details: for conditioning amplitude / test amplitude: vs baseline; for Rodent ICV dose: effective daily dose, mice
Experimental: The following methods were used to record the sensory inhibition.
The deficit in sensory inhibition can be quantified using the paired stimulus paradigm in which 2 identical stimuli are delivered 0.5 seconds apart and the electrophysiological response to each is recorded. In normal individuals, the response to the second, or test, stimulus, occurring 50 msec after stimulus onset, is reduced compared to the response to the first, or conditioning stimulus. However, schizophrenia patients have similar magnitude responses to both stimuli: The “TC ratio” is calculated by dividing the test amplitude by the conditioning amplitude. […] In normal individuals, the TC ratio is generally less than 0.4 while schizophrenia patients commonly have TC ratios above 0.5 and often approaching or exceeding 1.0.
In the present study, briefly, 5 baseline records were obtained in response to the paired auditory stimuli, prior to drug administration. […] Recordings were obtained at 5 minute intervals for 90 minutes post injection. Data analyzed included the amplitude of the response to the first stimulus (conditioning amplitude), amplitude of the response to the second stimulus (test amplitude) and the TC ratio (test amplitude/conditioning amplitude). This final parameter gives a measure of the level of inhibition in the circuit initiated by the conditioning stimulus. […] DBA/2 mice routinely have TC ratios of ≧0.8.

[11] = rodent ICV dose vs human oral equivalent
[12] = human dose is IV not oral for this drug

NC(=O)OCC(COC(N)=O)c1ccccc1 [Felbamate, 2-phenyl-1,3-propanediol dicarbamate]
Highest non-toxic concentration (animals; Behavioral: openfield, elevated plus, ataxia): 0.056 mg/mL | alleviation of seizures [1]: efficacious therapeutic alleviation of seizures | Comments: solubility [2]: Freely soluble in water and in alcohol; soluble in acetone; insoluble in ether and in benzene | Human oral equivalent (human; effective daily dose, oral): 20 mg/kg | % Change [3]: 60% | Rodent ICV dose [3]: 0.08242 mg/kg | Rodent ICV dose ([3]; listed as felbamate): about 0.08242 mg/kg | Efficacy [3]: effective in blocking | % of Oral dose [3, 11]: 0.4%

Nc1ncnc2c1ncn2[C@@H]1O[C@H](CO)[C@@H](O)[C@H]1O [Adenosine]
efficacy following ICV administration [4]: efficacy | Highest non-toxic concentration (animals; rat, in vivo): 0.0694 mg/mL | Human oral equivalent (human; [12]): 0.1 mg/kg | % Change [3]: 90% | Rodent ICV dose [3]: 0.001336 mg/kg | Efficacy [3]: effective in blocking | % of Oral dose [3, 12]: 1.3%

CN1CCN(C2=Nc3cc(Cl)ccc3Nc3ccccc32)CC1 [Clozapine, 8-chloro-11-(4-methyl-1-piperazinyl)-5H-dibenzo [b,e][1,4] diazepine]
patients who discontinue due to systemic side effects (schizophrenia patients): 17% | accumulation of drug in peripheral tissues and organs (rats; chronic ICV versus intraperitoneal (IP)): significantly less accumulation of drug in peripheral tissues and organs | CNS pathology and systemic toxicity (rats; rat, in vivo): minimal or no CNS pathology and low systemic toxicity | Highest non-toxic concentration (animals; rat, in vivo): 50 mg/mL | pH until which addition of NaOH has little effect on solubility ([5]; acidified with HCl, no solubility enhancing agent): ~6.5 | prevention of precipitation on titration ([5]; cyclodextrin): prevented clozapine precipitation | pH up to which precipitation is inhibited ([5]; cyclodextrin-to-clozapine molar ratio of 2:1): ≤ 9.0 | prevention of precipitation on titration ([5]; octyl glucoside): prevented clozapine precipitation | prevention of precipitation on titration above neutral pH ([5]; polyethylene glycol (PEG 4000)): not able to prevent clozapine precipitation | prevention of precipitation on titration above neutral pH ([5]; polyvinylpyrrolidone (PVP 10K)): not able to prevent clozapine precipitation | Human oral equivalent (human; effective daily dose, oral): 7.5 mg/kg | Highest non-toxic concentration ([6]; In vitro primary cortical cell culture): 10 µg/mL | final concentration at which significant toxicity was observed ([6]; clozapine formulated with cyclodextrin): ≥ 10 μg/mL and ≥ 30 μM | plasma levels ([7]; 0.5 μl/hr for 14 days, steady state): extremely low or not detectable | sensory inhibition ([7]; 14 days): improvement in sensory inhibition | response to the second tone [8]: significant decreases in the response to the second tone | partition coefficient ([9]; acidic conditions, pH 2): 0.4 | Solubility in water [9]: practically insoluble | octanol-to-water partition coefficient ([9]; pH 7.4 (Merck Index, 2004)): 1000 | conditioning amplitude ([10]; 0.5 μg ICV): increases in conditioning amplitude, though the latter did not reach statistical significance | test amplitude ([10]; 0.5 μg ICV): decreases in test amplitude | time post injection with significantly reduced test amplitudes ([10]; 1.0 μg ICV): 35 min | conditioning amplitude ([10]; 1.0 μg ICV): significantly increased conditioning amplitudes | test amplitude ([10]; 1.0 μg ICV): significantly reduced test amplitudes | Efficacy ([10]; acute effective dose for improvement of sensory inhibition deficits in mice): acute effective | Rodent ICV dose [10]: 0.040 mg/kg | Rodent ICV dose ([10]; listed as clozapine): about 0.040 mg/kg | % of Oral dose [10, 11]: 0.5% | ICV dose lower than systemically administered dose ([10]; same mouse model, vs Simosky et al 2002): > 1000 fold
